The text below walks through data of patent US20040121931A1, “Aqueous perborate bleach composition” (Unilever Home & Persona Care USA, Division of Conopco, Inc., priority 2002, published 2004).

This data set is described as follows: Iterative determination of perborate solubility in water and polyol/water (visual). The format is physicochemical. Here is the method:
An iterative process was used to determine the extent of perborate solubilty in water and polyol/water. 1.5 g of Na perborate monohydrate was added either to 100 g of water (Table 1A) or to 90 g water and 10 g sorbitol (70% active) (Table 1B). The mixture was stirred until all of sodium perborate monohydrate was dissolved. A 0.5 g aliquot of sodium perborate monohydrate was then added to the solution while stirring and visually monitored to see if all the added sodium perborate monohydrate dissolves. If the aliquot dissolved, another 0.5 g of sodium perborate monohydrate would be added. This procedure was continued until the added perborate no longer appeared to dissolve.

[1] abbreviates: 1.50 g in 90 g water + 10 g sorbitol (70%), perborate/sorbitol 1/3.55.
[2] abbreviates: 3.50 g in 90 g water + 10 g sorbitol (70%), perborate/sorbitol 1/1.01.
[3] abbreviates: 5.50 g in 90 g water + 10 g sorbitol (70%), perborate/sorbitol 1.43/1.
The mark [4] stands for this setting: 8.00 g in 90 g water + 10 g sorbitol (70%), perborate/sorbitol 2.09/1.
Where [5] appears, read: 8.50 g in 90 g water + 10 g sorbitol (70%), perborate/sorbitol 2.22/1.
[6] abbreviates: 9.50 g in 90 g water + 10 g sorbitol (70%), perborate/sorbitol 2.49/1.

In the case of `O.O=BO[O-].[Na+]` [Sodium Perborate monohydrate, sodium perborate monohydrate], the Appearance entry is, setting by setting: under setting [1], “Clear solution”; (1.5 g in 100 g water) “Clear solution”; (2.0 g in 100 g water) “Precipitate formed”; under setting [2], “Clear solution”; under setting [3], “Clear solution”; under setting [4], “Clear solution”. For the same compound, the Appearance result under setting [5] is recorded as “Precipitate” and the Appearance result under setting [6] was “Precipitate”. The pH reads like this: under setting [1], 8.30; (1.5 g in 100 g water) 10.00; (2.0 g in 100 g water) 10.06; under setting [2], 9.33; under setting [3], 9.56; under setting [4], 9.60. For the same compound, the pH by setting is: under setting [5], 9.60; under setting [6], 9.60. Moreover, where the note is “90 g water and 10 g sorbitol (70% active)”, the “solubility in water, in the presence of polyol” value is given as “up to 8.5 g”. Besides, where the note is “aqueous environment, with sorbitol vs without”, the “increase of solubility of perborate by polyol” value was “about 400%”. Further, the solubility in water entry (in 100 g water, no polyol) is on record as “below 2.0 g”.
